Tests used:
[1] = system: mesothelioma M9K cell line; experiment: XTT cell viability, mesothelioma M9K; assay type: cell-based; conditions: then DRA 72 h; for effect of NFκB inhibitor MG132 on the inhibitory effect on cell viability: MG132 2.5 μM 4 h; for effect of pan caspase inhibitor (z-VAD-fmk) on the inhibitory effect on cell viability: z-VAD-fmk 25 μM 2 h pretreatment
Method: FIG. 43. […] Mesothelioma M9K cells were treated with NFκB inhibitor MG132 (2.5 μM) for 4 h followed by treatment with various concentrations of DRA11, DRA9, and DRA9S for 72 h. At the end of incubation, cell viability was measured by XTT assay. Data represent the mean±S.D.
FIG. 52. […] M9K cells were pretreated with either control peptide (10 μM) or pan caspase inhibitor (z-VAD-fmk, 25 μM) for 2 h, followed by treatment with various doses of DRA11, DRA9 and DRA9S for 72 h. At the end of incubation, cell viability was measured by XTT assay. Data represent the mean±S.D.
(§1) XTT Assay. Cells (1×10^4 cells per well) were seeded in 96-well plates (flat bottom), and treated with death receptor agonists/activators/small molecules in the presence or absence of TNF-related apoptosis inducing ligand (TRAIL). Plates were incubated for various time points at 37° C. and 5% CO2. Before the end of the experiment, 50 μl XTT (sodium 3′[1-(phenylaminocarbonyl)-3,4-tetrazolium]-bis(4-methoxy-6-nitro) benzene sulfonic acid hydrate) labeling mixture (final concentration, 125 μM sodium XTT and 25 μM PMS) per well was added and plates were incubated for a further 4 h at 37° C. and 5% CO2. The spectrophotometric absorbance of the sample was measured using a microtitre plate (ELISA) reader. The wavelength to measure absorbance of the formazan product was 450 nm, and the reference wavelength was 650 nm.

[2] = system: breast cancer MDA-MB-231 cell line; experiment: XTT cell viability with signaling inhibitor pretreatment, MDA-MB-231; assay type: cell-based, human; conditions: then DRA 72 h; for effect of Akt inhibitor on the inhibitory effect on cell viability: Akt inhibitor 0.5 μM 4 h pretreatment; for effect of PI-3 kinase inhibitor LY294002 on the inhibitory effect on cell viability: LY294002 2.5 μM 4 h pretreatment; for effect of NFκB inhibitor MG132 on the inhibitory effect on cell viability: MG132 2.5 μM 4 h pretreatment
Method: FIG. 39. […] MDA-MB-231 cells were pretreated with NFκB inhibitor MG132 (2.5 μM) for 4 h followed by treatment with various concentrations of DRA11, DRA9, and DRA9S for 72 h. At the end of incubation, cell viability was measured by XTT assay. Data represent the mean±S.D.
FIG. 40. […] MDA-MB-231 cells were pretreated with LY294002 (2.5 μM) for 4 h followed by treatment with various concentrations of DRA11, DRA9, and DRA9S for 72 h. At the end of incubation, cell viability was measured by XTT assay. Data represent the mean±S.D.
FIG. 41. […] MDA-MB-231 cells were pretreated with Akt inhibitor (0.5 μM) for 4 h followed by treatment with various concentrations of DRA11, DRA9, and DRA9S for 72 h. At the end of incubation, cell viability was measured by XTT assay. Data represent the mean±S.D.
as §1

AsPC-1 cells = experiment: XTT cell viability with caspase inhibitor pretreatment, AsPC-1; assay type: cell-based, human; conditions: then DRA 72 h; for effect of caspase-3 inhibitor (z-DEVD-fmk) on the DRA effect on cell viability: Z-DEVD-fmk 25 μM 2 h pretreatment; for effect of caspase-8 inhibitor (Ac-IETD-CHO) on the DRA effect on cell viability: caspase-8 inhibitor 25 μM 2 h pretreatment; for effect of pan caspase inhibitor (z-VAD-fmk) on the DRA effect on cell viability: inhibitor 25 μM 2 h pretreatment
Method: FIG. 5. […] AsPC-1 cells were pretreated with either control peptide (25 μM) or caspase-3 inhibitor (Z-DEVD-fmk, 25 μM) for 2 h, followed by treatment with various doses of DRA11, DRA9 and DRA9S for 72 h. At the end of incubation, cell viability was measured by XTT assay. Data represent the mean±S.D. Control refers to a group treated with DMSO (0.01%).
FIG. 6. […] AsPC-1 cells were pretreated with either control peptide (25 μM) or caspase-8 inhibitor (25 μM) for 2 h, followed by treatment with various doses of DRA11, DRA9 and DRA9S for 72 h. At the end of incubation, cell viability was measured by XTT assay. Data represent the mean±S.D. Control refers to a group treated with DMSO (0.01%).
FIG. 7. […] AsPC-1 cells were pretreated with either control peptide (25 μM) or caspase-8 inhibitor (25 μM) for 2 h, followed by treatment with various doses of DRA11, DRA9 and DRA9S for 72 h. At the end of incubation, cell viability was measured by XTT assay. Data represent the mean±S.D. Control refers to a group treated with DMSO (0.01%).
as §1
AsPC-1 cells were pretreated with either control peptide (25 μM) or caspase-3 inhibitor (Z-DEVD-fink, 25 μM) for 2 h, followed by treatment with various doses of DRA11, DRA9 and DRA9S for 72 h. At the end of incubation, cell viability was measured by XTT assay. See, for example, FIG. 5. Data represent the mean±S.D. Control refers to a group treated with DMSO (0.01%).
AsPC-1 cells were pretreated with either control peptide (25 μM) or caspase-8 inhibitor (25 μM) for 2 h, followed by treatment with various doses of DRA11, DRA9 and DRA9S for 72 h. At the end of incubation, cell viability was measured by XTT assay. See, for example, FIG. 6. Data represent the mean±S.D. Control refers to a group treated with DMSO (0.01%).
AsPC-1 cells were pretreated with either control peptide (25 μM) or caspase-8 inhibitor (25 μM) for 2 h, followed by treatment with various doses of DRA11, DRA9 and DRA9S for 72 h. At the end of incubation, cell viability was measured by XTT assay. See, for example, FIG. 7. Data represent the mean±S.D. Control refers to a group treated with DMSO (0.01%).

[3] = system: human bronchial epithelial cells (Beas2B); experiment: XTT cell viability, bronchial epithelial cells; assay type: cell-based; conditions: 72 h
Method: FIG. 23. DRAs have no effect on cell viability in human bronchial epithelial cells (Beas2B). Beas2B cells were treated with DRA11, DRA9 and DRA9S for 72 h. At the end of incubation period, cell viability was measured by XTT assay. Data represent the mean±S.D. Control refers to group treated with DMSO (0.01%).
as §1
Beas2B cells were treated with DRA11, DRA9 and DRA9S for 72 h. At the end of incubation period, cell viability was measured by XTT assay. See, for example, FIG. 23. Data represent the mean ±S.D. Control refers to group treated with DMSO (0.01%).

[4] = system: mesothelioma REN cell line; experiment: XTT cell viability, mesothelioma REN; assay type: cell-based; conditions: then DRA 72 h; for effect of NFκB inhibitor MG132 on the inhibitory effect on cell viability: MG132 2.5 μM 4 h
Method: FIG. 45. […] Mesothelioma REN cells were treated with NFκB inhibitor MG132 (2.5 μM) for 4 h followed by treatment with various concentrations of DRA11, DRA9, and DRA9S for 72 h. At the end of incubation, cell viability was measured by XTT assay. Data represent the mean±S.D.
FIG. 55. […] REN cells were pretreated with either control peptide (10 μM) or pan caspase inhibitor (z-VAD-fink, 25 μM) for 2 h, followed by treatment with various doses of DRA11, DRA9 and DRA9S for 72 h. At the end of incubation, cell viability was measured by XTT assay. Data represent the mean±S.D.
as §1

Compound | effect of NFκB inhibitor MG132 on the inhibitory effect on cell viability [1] | effect of pan caspase inhibitor (z-VAD-fmk) on the inhibitory effect on cell viability [1] | effect of Akt inhibitor on the inhibitory effect on cell viability [2] | effect of PI-3 kinase inhibitor LY294002 on the inhibitory effect on cell viability [2] | effect of NFκB inhibitor MG132 on the inhibitory effect on cell viability [2] | effect of caspase-3 inhibitor (z-DEVD-fmk) on the DRA effect on cell viability (AsPC-1 cells) | effect of caspase-8 inhibitor (Ac-IETD-CHO) on the DRA effect on cell viability (AsPC-1 cells) | effect of pan caspase inhibitor (z-VAD-fmk) on the DRA effect on cell viability (AsPC-1 cells) | effect on cell viability in Beas2B cells [3] | effect of NFκB inhibitor MG132 on the inhibitory effect on cell viability [4] | effect of pan caspase inhibitor (z-VAD-fmk) on the inhibitory effect on cell viability ([4]; z-VAD-fmk 25 μM 2 h pretreatment)
CCOc1cc(Br)c(Br)c(/C=N/c2cccc(C(=O)O)c2C)c1O [DRA9S] | enhances the inhibitory effects | blocks the inhibitory effects | enhances the inhibitory effects | enhances the inhibitory effects | enhances the inhibitory effects | blocks the effects | blocks the effects | blocks effects | no effect | enhances the inhibitory effects | 
CCOc1cc(Br)c(Br)c(/C=N/c2cccc(C(=O)O)c2)c1O [DRA9] | enhances the inhibitory effects | blocks the inhibitory effects | enhances the inhibitory effects | enhances the inhibitory effects | enhances the inhibitory effects | blocks the effects | blocks the effects | blocks effects | no effect | enhances the inhibitory effects | blocks the inhibitory effects

— patent US7915245B2, “Methods and compositions of trail-death receptor agonists/activators” (The Board of Regents of the University of Texas System, priority 2007, dated 2011)
